According to paper PMC5814754, “Quantitative, Wide-Spectrum Kinase Profiling in Live Cells for Assessing the Effect of Cellular ATP on Target Engagement” (Cell Chemical Biology, 2018):

How the values were obtained:
INSR = conditions: read-out: Live Cell IC50 Phospho Elisa; ref Cui et al., 2011; cited from earlier work
178 full-length kinases [1] = molecular target: 178 full-length kinases (Homo sapiens, UniProt P31749); assay: NanoBRET single-dose fractional occupancy profiling of kinase/Nluc library in live HEK293 cells (Table S1); format: binding; design: receptor occupancy: dose or concentration left out as unconfirmed; Occupancy, % Replicate 1 / Occupancy, % Replicate 2: unit of the concentration uncertain; conditions: AKT1, Nluc C, probe 5 at 1 (unit uncertain)
178 full-length kinases (Homo sapiens, UniProt P31749), sequence (P31749 whole entry): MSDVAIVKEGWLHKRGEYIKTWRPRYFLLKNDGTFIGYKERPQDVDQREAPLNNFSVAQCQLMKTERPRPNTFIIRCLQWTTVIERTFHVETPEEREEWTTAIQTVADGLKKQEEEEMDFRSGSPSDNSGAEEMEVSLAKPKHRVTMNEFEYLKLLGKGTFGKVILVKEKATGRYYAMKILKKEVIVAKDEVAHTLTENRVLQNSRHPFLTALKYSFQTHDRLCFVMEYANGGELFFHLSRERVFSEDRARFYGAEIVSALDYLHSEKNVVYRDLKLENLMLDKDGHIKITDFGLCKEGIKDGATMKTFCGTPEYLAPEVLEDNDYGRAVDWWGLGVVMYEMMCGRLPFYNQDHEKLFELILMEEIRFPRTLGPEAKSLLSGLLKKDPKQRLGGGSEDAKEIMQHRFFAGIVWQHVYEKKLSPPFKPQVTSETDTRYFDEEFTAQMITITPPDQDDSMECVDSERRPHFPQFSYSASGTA

178 full-length kinases [2] = molecular target: 178 full-length kinases (Homo sapiens, UniProt P52333); assay: as above; format: binding; design: receptor occupancy: dose or concentration left out as unconfirmed; Occupancy, % Replicate 1 / Occupancy, % Replicate 2: unit of the concentration uncertain; conditions: JAK3, Nluc C, probe 5 at 1 (unit uncertain)
178 full-length kinases [3] = molecular target: 178 full-length kinases (Homo sapiens, UniProt P31751); assay: as above; format: binding; design: receptor occupancy: dose or concentration left out as unconfirmed; Occupancy, % Replicate 1 / Occupancy, % Replicate 2: unit of the concentration uncertain; conditions: AKT2, Nluc C, probe 5 at 1 (unit uncertain)
178 full-length kinases (Homo sapiens, UniProt P31751), sequence (P31751 whole entry): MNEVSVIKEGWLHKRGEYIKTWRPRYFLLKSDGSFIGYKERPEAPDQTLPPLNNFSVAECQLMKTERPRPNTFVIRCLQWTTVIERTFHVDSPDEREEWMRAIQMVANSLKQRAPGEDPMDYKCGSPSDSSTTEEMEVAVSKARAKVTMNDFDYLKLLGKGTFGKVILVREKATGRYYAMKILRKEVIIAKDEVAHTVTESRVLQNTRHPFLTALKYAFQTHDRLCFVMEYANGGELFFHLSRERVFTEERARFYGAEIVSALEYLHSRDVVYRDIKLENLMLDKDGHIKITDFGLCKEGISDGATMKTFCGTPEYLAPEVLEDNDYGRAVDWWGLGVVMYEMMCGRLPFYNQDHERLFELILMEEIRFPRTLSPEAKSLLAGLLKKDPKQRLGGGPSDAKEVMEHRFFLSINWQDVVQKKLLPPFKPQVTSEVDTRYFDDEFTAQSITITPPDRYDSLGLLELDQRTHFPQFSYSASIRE

178 full-length kinases [4] = molecular target: 178 full-length kinases (Homo sapiens, UniProt Q12866); assay: as above; format: binding; design: receptor occupancy: dose or concentration left out as unconfirmed; Occupancy, % Replicate 1 / Occupancy, % Replicate 2: unit of the concentration uncertain; conditions: MERTK, Nluc C; read-out: Occupancy, % Replicate 2
178 full-length kinases [5] = molecular target: 178 full-length kinases (Homo sapiens, UniProt Q00532); assay: as above; format: binding; design: receptor occupancy: dose or concentration left out as unconfirmed; Occupancy, % Replicate 1 / Occupancy, % Replicate 2: unit of the concentration uncertain; conditions: CDKL1, Nluc N, probe 1 at 0.1 (unit uncertain)
178 full-length kinases (Homo sapiens, UniProt Q00532), sequence (Q00532 whole entry): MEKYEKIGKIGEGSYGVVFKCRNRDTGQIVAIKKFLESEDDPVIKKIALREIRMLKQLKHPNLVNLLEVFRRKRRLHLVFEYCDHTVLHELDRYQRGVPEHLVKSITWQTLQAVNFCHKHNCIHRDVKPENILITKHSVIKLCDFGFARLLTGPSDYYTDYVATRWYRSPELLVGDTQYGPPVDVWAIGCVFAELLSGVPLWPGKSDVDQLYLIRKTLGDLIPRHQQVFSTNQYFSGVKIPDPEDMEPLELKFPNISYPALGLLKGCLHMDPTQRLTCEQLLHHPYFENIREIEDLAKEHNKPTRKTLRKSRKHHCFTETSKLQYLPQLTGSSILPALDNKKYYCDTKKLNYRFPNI

178 full-length kinases [6] = molecular target: 178 full-length kinases (Homo sapiens, UniProt Q02779); assay: as above; format: binding; design: receptor occupancy: dose or concentration left out as unconfirmed; Occupancy, % Replicate 1 / Occupancy, % Replicate 2: unit of the concentration uncertain; conditions: MAP3K10, Nluc N, probe 5 at 1 (unit uncertain)
178 full-length kinases [7] = molecular target: 178 full-length kinases (Homo sapiens, UniProt Q96L34); assay: as above; format: binding; design: receptor occupancy: dose or concentration left out as unconfirmed; Occupancy, % Replicate 1 / Occupancy, % Replicate 2: unit of the concentration uncertain; conditions: MARK4, Nluc N, probe 5 at 1 (unit uncertain)
178 full-length kinases (Homo sapiens, UniProt Q96L34), sequence (Q96L34 whole entry): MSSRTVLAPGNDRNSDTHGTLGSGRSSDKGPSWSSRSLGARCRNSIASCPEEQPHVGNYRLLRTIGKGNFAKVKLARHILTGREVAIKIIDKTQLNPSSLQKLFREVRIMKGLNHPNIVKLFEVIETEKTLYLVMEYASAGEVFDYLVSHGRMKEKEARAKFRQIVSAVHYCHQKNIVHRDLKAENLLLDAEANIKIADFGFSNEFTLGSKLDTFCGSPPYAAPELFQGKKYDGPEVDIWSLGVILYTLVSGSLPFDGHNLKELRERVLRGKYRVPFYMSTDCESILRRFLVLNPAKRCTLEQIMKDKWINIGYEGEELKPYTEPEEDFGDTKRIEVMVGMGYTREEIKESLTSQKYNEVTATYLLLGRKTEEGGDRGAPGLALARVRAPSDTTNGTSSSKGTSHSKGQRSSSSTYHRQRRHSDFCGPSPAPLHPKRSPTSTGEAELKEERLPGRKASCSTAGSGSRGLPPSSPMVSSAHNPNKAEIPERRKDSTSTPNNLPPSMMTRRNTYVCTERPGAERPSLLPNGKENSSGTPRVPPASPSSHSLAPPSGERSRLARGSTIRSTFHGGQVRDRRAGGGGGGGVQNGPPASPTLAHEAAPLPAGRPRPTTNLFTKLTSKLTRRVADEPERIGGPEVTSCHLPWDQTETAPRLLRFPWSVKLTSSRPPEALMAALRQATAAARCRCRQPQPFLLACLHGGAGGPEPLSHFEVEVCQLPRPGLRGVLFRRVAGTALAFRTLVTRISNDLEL

178 full-length kinases [8] = molecular target: 178 full-length kinases (Homo sapiens, UniProt P78368); assay: as above; format: binding; design: receptor occupancy: dose or concentration left out as unconfirmed; Occupancy, % Replicate 1 / Occupancy, % Replicate 2: unit of the concentration uncertain; conditions: CSNK1G2, Nluc N, probe 5 at 1 (unit uncertain)
178 full-length kinases [9] = molecular target: 178 full-length kinases (Homo sapiens, UniProt Q96PY6); assay: as above; format: binding; design: receptor occupancy: dose or concentration left out as unconfirmed; Occupancy, % Replicate 1 / Occupancy, % Replicate 2: unit of the concentration uncertain; conditions: NEK1, Nluc N, probe 5 at 1 (unit uncertain)
178 full-length kinases [10] = molecular target: 178 full-length kinases (Homo sapiens, UniProt P09769); assay: as above; format: binding; design: receptor occupancy: dose or concentration left out as unconfirmed; Occupancy, % Replicate 1 / Occupancy, % Replicate 2: unit of the concentration uncertain; conditions: FGR, Nluc N, probe 6 at 0.5 (unit uncertain)
178 full-length kinases [11] = molecular target: 178 full-length kinases (Homo sapiens, UniProt Q8IYT8); assay: as above; format: binding; design: receptor occupancy: dose or concentration left out as unconfirmed; Occupancy, % Replicate 1 / Occupancy, % Replicate 2: unit of the concentration uncertain; conditions: ULK2 (NP_001136082), Nluc orientation N, probe 5 at 1 (unit uncertain)
178 full-length kinases (Homo sapiens, UniProt Q8IYT8), sequence (Q8IYT8 whole entry): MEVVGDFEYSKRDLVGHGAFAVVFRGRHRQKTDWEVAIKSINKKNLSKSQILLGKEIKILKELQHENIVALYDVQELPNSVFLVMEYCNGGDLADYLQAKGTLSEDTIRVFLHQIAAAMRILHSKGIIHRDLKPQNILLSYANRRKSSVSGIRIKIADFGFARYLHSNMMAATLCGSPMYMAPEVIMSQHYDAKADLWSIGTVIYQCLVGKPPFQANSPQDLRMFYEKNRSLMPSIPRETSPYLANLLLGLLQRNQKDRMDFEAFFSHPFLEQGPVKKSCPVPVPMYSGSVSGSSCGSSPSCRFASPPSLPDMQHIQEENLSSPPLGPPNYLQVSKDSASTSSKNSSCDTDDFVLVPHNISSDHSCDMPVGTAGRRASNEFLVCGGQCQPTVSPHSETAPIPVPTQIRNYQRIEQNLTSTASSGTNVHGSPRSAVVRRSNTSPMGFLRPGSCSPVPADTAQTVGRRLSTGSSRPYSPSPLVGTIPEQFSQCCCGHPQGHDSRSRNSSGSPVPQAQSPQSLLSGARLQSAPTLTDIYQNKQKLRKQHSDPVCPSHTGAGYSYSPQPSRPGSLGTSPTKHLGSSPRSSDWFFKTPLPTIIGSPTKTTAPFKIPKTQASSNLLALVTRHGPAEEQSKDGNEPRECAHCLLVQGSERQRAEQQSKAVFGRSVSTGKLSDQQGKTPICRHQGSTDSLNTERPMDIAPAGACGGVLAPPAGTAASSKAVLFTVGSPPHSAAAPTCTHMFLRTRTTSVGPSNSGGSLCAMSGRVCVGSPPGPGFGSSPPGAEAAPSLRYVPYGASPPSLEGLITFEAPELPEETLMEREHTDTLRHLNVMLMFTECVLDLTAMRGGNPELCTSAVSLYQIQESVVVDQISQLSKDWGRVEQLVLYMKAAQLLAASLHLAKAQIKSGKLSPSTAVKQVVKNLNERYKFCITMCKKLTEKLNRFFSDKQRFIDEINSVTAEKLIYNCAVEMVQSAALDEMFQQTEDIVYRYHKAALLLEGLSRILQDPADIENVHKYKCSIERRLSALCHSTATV

178 full-length kinases [12] = molecular target: 178 full-length kinases (Homo sapiens, UniProt Q9Y463); assay: as above; format: binding; design: receptor occupancy: dose or concentration left out as unconfirmed; Occupancy, % Replicate 1 / Occupancy, % Replicate 2: unit of the concentration uncertain; conditions: DYRK1B, Nluc N, probe 5 at 1 (unit uncertain)
178 full-length kinases (Homo sapiens, UniProt Q9Y463), sequence (Q9Y463 whole entry): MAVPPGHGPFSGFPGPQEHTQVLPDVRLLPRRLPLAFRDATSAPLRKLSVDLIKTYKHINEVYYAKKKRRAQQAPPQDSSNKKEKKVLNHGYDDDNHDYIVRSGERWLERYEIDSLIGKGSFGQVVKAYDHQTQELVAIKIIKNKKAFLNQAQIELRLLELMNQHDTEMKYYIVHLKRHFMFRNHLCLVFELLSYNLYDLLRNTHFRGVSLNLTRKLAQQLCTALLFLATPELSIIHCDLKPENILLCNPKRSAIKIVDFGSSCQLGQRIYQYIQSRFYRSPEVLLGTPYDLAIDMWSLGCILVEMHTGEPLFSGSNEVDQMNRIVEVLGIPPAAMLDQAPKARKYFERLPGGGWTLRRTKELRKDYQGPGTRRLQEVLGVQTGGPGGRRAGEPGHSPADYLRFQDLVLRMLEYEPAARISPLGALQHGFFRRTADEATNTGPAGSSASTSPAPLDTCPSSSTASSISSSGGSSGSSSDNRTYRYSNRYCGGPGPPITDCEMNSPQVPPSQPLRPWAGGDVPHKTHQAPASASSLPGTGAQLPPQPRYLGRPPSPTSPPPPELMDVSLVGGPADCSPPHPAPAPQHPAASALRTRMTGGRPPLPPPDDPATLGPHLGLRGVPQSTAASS

178 full-length kinases [13] = molecular target: 178 full-length kinases (Homo sapiens, UniProt O75676); assay: as above; format: binding; design: receptor occupancy: dose or concentration left out as unconfirmed; Occupancy, % Replicate 1 / Occupancy, % Replicate 2: unit of the concentration uncertain; conditions: RPS6KA4 (NP_001287731), Nluc orientation N, probe 5 at 0.1 (unit uncertain); replicate 1
178 full-length kinases [14] = molecular target: 178 full-length kinases (Homo sapiens, UniProt P54646); assay: as above; format: binding; design: receptor occupancy: dose or concentration left out as unconfirmed; Occupancy, % Replicate 1 / Occupancy, % Replicate 2: unit of the concentration uncertain; conditions: PRKAA2, Nluc N, probe 5 at 0.5 (unit uncertain)
178 full-length kinases (Homo sapiens, UniProt P54646), sequence (P54646 whole entry): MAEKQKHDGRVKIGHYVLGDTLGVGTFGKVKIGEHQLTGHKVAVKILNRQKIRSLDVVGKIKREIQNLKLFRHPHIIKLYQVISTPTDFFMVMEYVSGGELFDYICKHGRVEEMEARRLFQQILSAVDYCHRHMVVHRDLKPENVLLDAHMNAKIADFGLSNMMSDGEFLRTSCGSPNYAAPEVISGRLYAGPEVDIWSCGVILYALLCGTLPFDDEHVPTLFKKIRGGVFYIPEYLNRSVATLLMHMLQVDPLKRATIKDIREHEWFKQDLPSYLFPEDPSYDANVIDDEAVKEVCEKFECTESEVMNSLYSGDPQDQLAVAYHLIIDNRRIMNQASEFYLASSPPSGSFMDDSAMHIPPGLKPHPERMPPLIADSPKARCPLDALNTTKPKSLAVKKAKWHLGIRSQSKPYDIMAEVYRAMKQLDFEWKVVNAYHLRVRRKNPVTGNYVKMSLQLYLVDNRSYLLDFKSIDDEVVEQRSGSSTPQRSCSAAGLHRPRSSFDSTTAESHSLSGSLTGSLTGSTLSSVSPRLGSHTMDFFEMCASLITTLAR

178 full-length kinases [15] = molecular target: 178 full-length kinases (Homo sapiens, UniProt Q16539); assay: as above; format: binding; design: receptor occupancy: dose or concentration left out as unconfirmed; Occupancy, % Replicate 1 / Occupancy, % Replicate 2: unit of the concentration uncertain; conditions: MAPK14, Nluc C, probe 6 at 0.1 (unit uncertain)
178 full-length kinases [16] = molecular target: 178 full-length kinases (Homo sapiens, UniProt P27037); assay: as above; format: binding; design: receptor occupancy: dose or concentration left out as unconfirmed; Occupancy, % Replicate 1 / Occupancy, % Replicate 2: unit of the concentration uncertain; conditions: ACVR2A, Nluc C, probe 2 at 1 (unit uncertain)
178 full-length kinases (Homo sapiens, UniProt P27037), sequence (P27037 20-513): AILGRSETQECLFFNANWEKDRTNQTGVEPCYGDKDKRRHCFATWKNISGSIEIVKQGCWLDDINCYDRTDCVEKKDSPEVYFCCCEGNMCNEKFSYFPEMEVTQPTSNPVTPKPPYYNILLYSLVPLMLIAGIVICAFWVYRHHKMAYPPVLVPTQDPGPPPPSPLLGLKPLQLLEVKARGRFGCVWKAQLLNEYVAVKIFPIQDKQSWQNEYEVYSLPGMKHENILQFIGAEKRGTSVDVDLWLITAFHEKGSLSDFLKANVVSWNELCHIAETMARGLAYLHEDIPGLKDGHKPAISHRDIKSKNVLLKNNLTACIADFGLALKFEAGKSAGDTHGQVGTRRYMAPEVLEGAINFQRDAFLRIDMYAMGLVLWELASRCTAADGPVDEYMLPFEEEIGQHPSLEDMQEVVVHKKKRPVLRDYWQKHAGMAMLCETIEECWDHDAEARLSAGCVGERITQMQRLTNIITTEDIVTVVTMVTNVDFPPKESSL

In the case of `C[C@@H](Oc1cc(-c2cnn(C3CCNCC3)c2)cnc1N)c1c(Cl)ccc(F)c1Cl` [Crizotinib], the IC50 (INSR) is listed as […], the “Occupancy, % Replicate 1” value (178 full-length kinases [1]) is listed as “No Binding” and the “Occupancy, % Replicate 2” value (178 full-length kinases [1]) is listed as “No Binding”. The “Occupancy, % Replicate 2” value (178 full-length kinases [2]) was “No Binding”, the “Occupancy, % Replicate 1” value (178 full-length kinases [3]) was “No Binding” and the “Occupancy, % Replicate 2” value (178 full-length kinases [3]) was “No Binding”. The receptor occupancy (178 full-length kinases [4]) was 81%, the “Occupancy, % Replicate 1” value (178 full-length kinases [5]) was “No Binding” and the “Occupancy, % Replicate 2” value (178 full-length kinases [5]) was “No Binding”. For the same compound, the “Occupancy, % Replicate 1” value (178 full-length kinases [6]) was “No Binding”, the “Occupancy, % Replicate 2” value (178 full-length kinases [6]) was “No Binding” and the “Occupancy, % Replicate 1” value (178 full-length kinases [7]) was “No Binding”. For the same compound, the “Occupancy, % Replicate 2” value (178 full-length kinases [7]) was “No Binding”, the “Occupancy, % Replicate 2” value (178 full-length kinases [8]) was “No Binding” and the “Occupancy, % Replicate 2” value (178 full-length kinases [9]) was “No Binding”. The “Occupancy, % Replicate 2” value (178 full-length kinases [10]) was “No Binding”, the “Occupancy, % Replicate 1” value (178 full-length kinases [11]; replicate 1) was “No Binding” and the “Occupancy, % Replicate 2” value (178 full-length kinases [11]; replicate 2) was “No Binding”. The “Occupancy, % Replicate 1” value (178 full-length kinases [12]) was “No Binding”, the “Occupancy, % Replicate 2” value (178 full-length kinases [12]) was “No Binding” and the “Occupancy, % Replicate 1” value (178 full-length kinases [13]) was “No Binding”. The “Occupancy, % Replicate 1” value (178 full-length kinases [14]) was “No Binding”, the “Occupancy, % Replicate 2” value (178 full-length kinases [14]) was “No Binding” and the “Occupancy, % Replicate 1” value (178 full-length kinases [15]) was “No Binding”. For the same compound, the “Occupancy, % Replicate 2” value (178 full-length kinases [15]) was “No Binding”, the “Occupancy, % Replicate 1” value (178 full-length kinases [16]) was “No Binding” and the “Occupancy, % Replicate 2” value (178 full-length kinases [16]) was “No Binding”.
